Measurements as given in patent US20240024403A1, “Compositions and Methods for Managing Weight” (Unigen, Inc., priority 2012, published 2024).

Tests used:
[1] = High fat diet induced obesity (DIO) rat model; type: in vivo, Spraue-Dawley rats; conditions: for Total Body Weight: in g (unit assumed)
Protocol: Male Spraue-Dawley rats, age 4-6 weeks (OrientBio, Inc.; Seongnam, Korea) were housed individually in Polycarbonate cages in a room with a 12 hr:12 hr light-dark cycle and an ambient temperature of 24° C. All the rats were fed a commercial chow diet for 1 week after arrival in the animal facility. Rats were then divided into normal and obesity groups and fed with normal diet (ND) and high fat diets (HFD) respectively. The HFD group was divided into multiple treatment groups: a high fat diet vehicle group (HFD), an orlistat (purchased as OTC drug Alli®) positive control treatment group (ORI, 80 mg/kg of animal weight, 2 times/day). In some examples, sibutramine was used as a positive control (SIB, 3 mg/kg for rat studies and […] for mice studies).
Body weight was measured once or twice per week and feed intake was measured twice per week. Body weight gain was determined for each study group by measurement of the body weight difference for each study group between each successive week of the study. At the end of the experimental period, following a 12-h fasting period, the animals were anesthetized with ether, and blood was drawn from the abdominal vein. Liver and kidney and adipose tissues (epididymal, retroperitoneal, perirenal adipose tissues) were removed from each animal, rinsed with physiological saline, and weighted. Serum concentrations of glucose, total cholesterol and LDL-cholesterol were determined using automatic analyzer (INTEGRA 400, Roche, Germany). Statistical significance of test results was performed by Student's t-test.

[2] = tested on: ghrelin; assay: Plasma active ghrelin level in DIO mice (ELISA); type: in vivo
Protocol: Obese mice were treated with various three component compositions to test the anti-obesity and appetite effects of such compositions. Three component Composition 1 (Magnolia:Morus:Yerba Mate) produced according to the Example 38, three component Composition 2 (Magnolia:Morus:Mutamba) produced according to the Example 42, three component Composition 3 (Morus: Rosemary:Yerba Mate) produced according to the Example 39, and three component Composition 9 (Morus:Rosemary:Areca) produced according to the Example 41, were each separately administrated orally to DIO mice as described in the Example 48. The high fat diet (HFD) mice were divided into multiple treatment groups with a total of 10 animals per group. The mice were treated with one of the following: Composition 1 (1300 mg/kg/day), Composition 2 (1300 mg/kg/day), Composition 3 (1700 mg/kg/day), or Composition 9 (1700 mg/kg/day). Control groups included a normal diet group given vehicle only (ND, negative control), a high fat diet group given vehicle only (HFD, negative control), an orlistat group (ORI, 40 mg/kg, 2 times/day, positive control), and a sibutramine group (10 mg/kg, 1 time/day, positive control). Body weight and feed intake were measured daily for 2 weeks after treatment and then twice a week until the end of the 7 week study. At week 2 and week 7 after treatment, mice were fasted for 16 hours and then five animals were examined to measure plasma concentrations of leptin and ghrelin. Leptin and ghrelin levels were measured by using commercial ELISA kits specific for leptin or ghrelin (Millipore Co., Billerica, MA) according to the manufacturer's instructions. Measurements were taken using a microplate reader (Victor™ X3, PerkinElmer Inc., USA) and analyzed with PerkinElmer 2030 workstation computer software.

[3] = SIB 3 mg/kg, DIO rats, blood at end of study
[4] = SIB 3 mg/kg, rats fed a high fat diet
[5] = SIB 3 mg/kg, rats fed a high fat diet, 42 days

In the case of CC(C)CC(N(C)C)C1(c2ccc(Cl)cc2)CCC1 (stereo not shown) [SIB, sibutramine], the “Fasting Glucose” value [1, 3] is reported as 136.00 mg/dL, the T-chol [1, 3] is reported as 106.60 mg/dL and the Triglyceride [1, 3] is reported as 41.10 mg/dL. For the same compound, the “Fat Deposit Weight: Epididymal Fat” value [1, 4] was 6.698, the “Fat Deposit Weight: Perirenal Fat” value [1, 4] was 1.562 and the “Fat Deposit Weight: Retroperitoneal Fat” value [1, 4] was 3.190. The “Fat Deposit Weight: Total Fat” value [1, 4] was 11.450, the “Food Efficiency Ratio (FER)” value [1, 5] was 0.155 and the “Food Intake” value [1, 5] was 13.880 g/day. The “Weight Gain” value [1, 5] was 2.160 g/day, the “Total Body Weight” value ([1]; day 0, SIB 3 mg/kg, DIO rats) was 364.15 and the “Total Body Weight” value ([1]; day 1, SIB 3 mg/kg, DIO rats) was 368.06. The “Weight Gain” value ([1]; day 1 vs day 0, SIB 3 mg/kg, DIO rats) was 3.91, the “Total Body Weight” value ([1]; day 2, SIB 3 mg/kg, DIO rats) was 356.78 and the “Weight Gain” value ([1]; day 2 vs day 0, SIB 3 mg/kg, DIO rats) was −7.37. For the same compound, the “Total Body Weight” value ([1]; day 3, SIB 3 mg/kg, DIO rats) was 357.21, the “Weight Gain” value ([1]; day 3 vs day 0, SIB 3 mg/kg, DIO rats) was −6.94 and the “Total Body Weight” value ([1]; day 4, SIB 3 mg/kg, DIO rats) was 358.78. For the same compound, the “Weight Gain” value ([1]; day 4 vs day 0, SIB 3 mg/kg, DIO rats) was −5.37, the “Total Body Weight” value ([1]; day 7, SIB 3 mg/kg, DIO rats) was 368.11 and the “Weight Gain” value ([1]; day 7 vs day 0, SIB 3 mg/kg, DIO rats) was 3.96. For the same compound, the “Total Body Weight” value ([1]; day 10, SIB 3 mg/kg, DIO rats) was 377.69, the “Weight Gain” value ([1]; day 10 vs day 0, SIB 3 mg/kg, DIO rats) was 13.54 and the “Total Body Weight” value ([1]; day 14, SIB 3 mg/kg, DIO rats) was 388.70. For the same compound, the “Weight Gain” value ([1]; day 14 vs day 0, SIB 3 mg/kg, DIO rats) was 24.55, the “Total Body Weight” value ([1]; day 18, SIB 3 mg/kg, DIO rats) was 395.38 and the “Weight Gain” value ([1]; day 18 vs day 0, SIB 3 mg/kg, DIO rats) was 31.23. The “Total Body Weight” value ([1]; day 21, SIB 3 mg/kg, DIO rats) was 407.06, the “Weight Gain” value ([1]; day 21 vs day 0, SIB 3 mg/kg, DIO rats) was 42.91 and the “Total Body Weight” value ([1]; day 24, SIB 3 mg/kg, DIO rats) was 414.91. The “Weight Gain” value ([1]; day 24 vs day 0, SIB 3 mg/kg, DIO rats) was 50.75, the “Total Body Weight” value ([1]; day 28, SIB 3 mg/kg, DIO rats) was 425.99 and the “Weight Gain” value ([1]; day 28 vs day 0, SIB 3 mg/kg, DIO rats) was 61.84. For the same compound, the “Total Body Weight” value ([1]; day 31, SIB 3 mg/kg, DIO rats) was 432.32, the “Weight Gain” value ([1]; day 31 vs day 0, SIB 3 mg/kg, DIO rats) was 68.17 and the “Total Body Weight” value ([1]; day 35, SIB 3 mg/kg, DIO rats) was 442.55. For the same compound, the “Weight Gain” value ([1]; day 35 vs day 0, SIB 3 mg/kg, DIO rats) was 78.40, the “Total Body Weight” value ([1]; day 38, SIB 3 mg/kg, DIO rats) was 447.66 and the “Weight Gain” value ([1]; day 38 vs day 0, SIB 3 mg/kg, DIO rats) was 83.51. The “Total Body Weight” value ([1]; day 42, SIB 3 mg/kg, DIO rats) was 454.96, the “Weight Gain” value ([1]; day 42 vs day 0, SIB 3 mg/kg, DIO rats) was 90.81 and the “blood biochemistry parameters vs HFD group” value ([1]; sibutramine 3 mg/kg) was “no statistically significant changes compared to the HFD group for any of the measured endpoints”. The “body weight gain vs HFD group” value ([1]; sibutramine 3 mg/kg) was “statistically significant decreases in body weight gains from day 2 to completion of the study on day 42”, the “organ and fat pad weights vs HFD group” value ([1]; sibutramine 3 mg/kg) was “statistically significant decreases in all categories of fat measurement” and the “total body weight vs HFD group” value ([1]; sibutramine 3 mg/kg) was “statistically significant reduction in body weight at day 2 through the remainder of the study (day 42)”. The “weight gain per day, food intake per day, food efficiency ratio (FER) vs HFD group” value ([1]; sibutramine 3 mg/kg) was “statically lower values than the HFD group for Weight Gain per day, Food Intake per day, and Food Efficiency Ratio”, the “Active Ghrelin (pg/ml) 2-week” value ([2]; DIO mice plasma, 2-week treatment) was 1001.3 pg/mL and the “Active Ghrelin (pg/ml) 7-week” value ([2]; DIO mice plasma, 7-week treatment) was 600.1 pg/mL. The “active ghrelin level vs HFD group” value ([2]; week 2 and week 7, orlistat 40 mg/kg 2 times/day, sibutramine 10 mg/kg 1 time/day) was “no effect on active ghrelin levels at either week 2 or week 7”.
